23 compounds from patent US10065948B2, “Histone deacetylase inhibitors and compositions and methods of use thereof” (CHDI Foundation, Inc., priority 2014, dated 2018) can be followed below.

pIC50: −log10 of the molar value.

Assay [1] relates to cellular histone deacetylase enzymatic activity in Jurkat E6-1 cells. The assay is described as follows: Inhibition of cellular HDAC activity, Boc-Lys(Tfa)-AMC substrate (Cell Lys-TFA). In kind it is cell-based. As for the experimental part:
The potency of the compounds is quantified by measuring the cellular histone deacetylase enzymatic activity using the fluorogenic substrate, Boc-Lys(Tfa)-AMC. After penetration in Jurkat E6-1 cells, the substrate is deacetylated to Boc-Lys-AMC. After cell lysis and cleavage by trypsin, the fluorophore AMC is released from the deacetylated substrate only. The fluorescence of the sample is directly related to the histone deacetylase activity in the sample.
Jurkat E6.1 cells are cultured according to standard cell culture protocols in Jurkat E6.1 Growth Media (RPMI without phenol red, 10% FBS, 10 mM HEPES, and 1 mM Sodium Pyruvate). Jurkat E6.1 cells are counted using a Coulter Counter and resuspended in Jurkat E6.1 growth media at a concentration of 75,000 cells/35 μL. 35 μL or 75,000 cells is seeded into Greiner microtitre assay plates. The plates are then incubated at 37° C. and 5% CO2 while other assay components are being prepared.
Stocks of 70 μL aliquots of the 10 mM compound in DMSO are prepared and stored at −20° C. From one stock aliquot of each compound to be tested and the reference compound, a 16-point serial dilution is prepared according to Table 1 using a 125 μL 16-channel Matrix multi-channel pipette.
2 μL (200×) of each diluted solution and each control (full activity: 100% DMSO alone or full inhibition 1 mM) is stamped into V-bottom polypropylene 384-well compound plates using either the Bravo, Janus, or 12.5 μL 16-channel Matrix multi-channel pipette. Each well with the 200× compound solution is diluted 1:20 by the addition of 38 μL Jurkat assay buffer+DMSO (9.5% DMSO, RPMI without phenol red, 0.09% FBS, 9 mM Hepes, and 0.9 mM Sodium Pyruvate equilibrated to room temperature)
5× (500 μM) substrate is prepared just prior to the addition to the assay. The 5× substrate is prepared by diluting a 100 mM Boc-Lys(Tfa)-AMC in DMSO solution 1:200 by adding it drop-wise to Jurkat assay medium (RPMI without phenol red, 0.1% FBS, 10 mM Hepes, and 1 mM Sodium Pyruvate equilibrated to 37° C.) while vortexing at slow speed to prevent precipitation.
10 mL of 3× lysis buffer is prepared with 8.8 ml of 3× stock lysis buffer (50 mM Tris-HCl, pH 8.0, 137 mM NaCl, 2.7 mM KCl, 1 mM MgCl2, 1% Nonidet P40 Substitute equilibrated to room temperature) and 1.2 mL of 3 mg/mL Trypsin equilibrated to room temperature.
5 μL of each solution of 1:20 diluted compound from above is transferred to the Greiner microtitre assay plates with 75,000 cells/well using the Bravo. Cells are then incubated for 2 hours at 37° C. and 5% CO2. […] The cells are then incubated for 3 hours at 37° C. and 5% CO2. Next, 25 μL of 3× lysis buffer is added to each well using either the 125 μL 16 channel pipette or the Bravo. The assay plate is then incubated overnight (15-16 hours) at 37° C. and 5% CO2. The following day, the plates are shaken on an orbital shaker for 1 minute at 900 rpm. Finally the top read fluorescence (Excitation: 355 nm, Emission: 460 nm) is measured using PerkinElmer EnVision.

Assay [2] concerns cellular histone deacetylase activity (Lys-Ac). The assay is described as follows: Inhibition of cellular HDAC activity (Cell Lys-Ac). The format is cell-based. The conditions noted are these: Lys-Ac substrate.
Where [3] appears, read: Homo sapiens, Jurkat E6.1, Lys-TFA substrate.

For `Cc1c(F)cccc1C1(C(=O)NO)Cc2nc(-c3cccc(F)c3)sc2C1` (single isomer, unassigned) [Example 64, E1-(abs)-5-(3-Fluoro-2-methylphenyl)-2-(3-fluorophenyl)-N-hydroxy-5,6-dihydro-4H-cyclopenta[d]thiazole-5-carboxamide], the pIC50 (in general, −log10 of the IC50, conventionally taken in molar units) in assay [1] (setting [3]) is 6.96; in assay [2], less than 4.30.

Consider `Cc1c(F)cccc1[C@]1(C(=O)NO)Cc2nc(-c3ccc(F)cc3)sc2C1` [Example 67, (S)-5-(3-fluoro-2-methylphenyl)-2-(4-fluorophenyl)-N-hydroxy-5,6-dihydro-4H-cyclopenta[d]thiazole-5-carboxamide], for which the pIC50 in assay [1] (setting [3]) was 6.54; in assay [2], less than 4.30.

For the compound `Cc1c(F)cccc1[C@@]1(C(=O)NO)Cc2nc(-c3ccc(F)cc3)sc2C1` [Example 66, (R)-5-(3-Fluoro-2-methylphenyl)-2-(4-fluorophenyl)-N-hydroxy-5,6-dihydro-4H-cyclopenta[d]thiazole-5-carboxamide], the figures for the pIC50 in assay [1] (setting [3]) and in assay [2] were 7.01 and less than 4.30, respectively.

As to `Cc1c(F)cccc1[C@@]1(C(=O)NO)CCc2nc(C3CC3)ncc21` (single isomer, unassigned) [Example 57], the pIC50 in assay [1] (setting [3]) and in assay [2] was less than 4.30 throughout.

As for `Cc1c(F)cccc1[C@@]1(C(=O)NO)Cc2snc(-c3ccccc3)c2C1` [Example 81, E2-(abs)-5-(3-Fluoro-2-methylphenyl)-N-hydroxy-3-phenyl-5,6-dihydro-4H-cyclopenta[d]isothiazole-5-carboxamide], the values for the pIC50 in assay [1] (setting [3]) and in assay [2] were 5.25 and less than 4.30, respectively.

As to `Cc1c(F)cccc1[C@]1(C(=O)NO)Cc2cnc(-c3cccnc3)nc2C1` [Example 60, (S)-6-(3-Fluoro-2-methylphenyl)-N-hydroxy-2-(pyridin-3-yl)-6,7-dihydro-5H-cyclopenta[d]pyrimidine-6-carboxamide], the pIC50 in assay [1] (setting [3]) is 6.70; in assay [2], less than 4.30.

In the case of `Cc1c(F)cccc1[C@]1(C(=O)NO)Cc2cnc(C3CC3)nc2C1` [Example 52, (S)-2-Cyclopropyl-6-(3-fluoro-2-methylphenyl)-N-hydroxy-6,7-dihydro-5H-cyclopenta[d]pyrimidine-6-carboxamide], the pIC50 is 6.68 in assay [1] (setting [3]) and less than 4.30 in assay [2].

On to `O=C(NO)[C@]1(c2ccccc2)CCc2ccccc21` [Example 87, E1-(abs)-N-Hydroxy-1-phenyl-2,3-dihydro-1H-indene-1-carboxamide], for which the figures for the pIC50 in assay [1] (setting [3]) and in assay [2] were 4.34 and less than 4.30, respectively.

Take `Cc1ccccc1-n1ncc2c1C[C@](C(=O)NO)(c1cccc(F)c1C)C2` [Example 2, (S)-5-(3-Fluoro-2-methylphenyl)-N-hydroxy-1-(o-tolyl)-1,4,5,6-tetrahydrocyclopenta[c]pyrazole-5-carboxamide]: the negative logarithm of the IC50 (pIC50) in assay [1] (setting [3]) is 7.85; in assay [2] it was less than 4.30.

As for `Cc1c(F)cccc1[C@@]1(C(=O)NO)CCc2nc(C3CC3)ncc21` [Example 51, (S)-2-cyclopropyl-5-(3-fluoro-2-methylphenyl)-N-hydroxy-6,7-dihydro-5H-cyclopenta[d]pyrimidine-5-carboxamide], the values for the pIC50 in assay [1] (setting [3]) and in assay [2] were 5.85 and less than 4.30, respectively.

In turn, `Cc1c(F)cccc1C1(C(=O)NO)Cc2nc(-c3cccc(F)c3)sc2C1` (single isomer, unassigned) [Example 65, E2-(abs)-5-(3-fluoro-2-methylphenyl)-2-(3-fluorophenyl)-N-hydroxy-5,6-dihydro-4H-cyclopenta[d]thiazole-5-carboxamide] gave a pIC50 in assay [2] of less than 4.30.

Regarding `Cc1c(F)cccc1[C@]1(C(=O)NO)Cc2cnc(-c3ccc(F)cc3)nc2C1` [Example 55, (S)-6-(3-Fluoro-2-methylphenyl)-2-(4-fluorophenyl)-N-hydroxy-6,7-dihydro-5H-cyclopenta[d]pyrimidine-6-carboxamide], the pIC50 is 6.59 in assay [1] (setting [3]) and less than 4.30 in assay [2].

In the case of `O=C(NO)C1(c2ccccc2)Cc2ccccc2C1` [Example 89, N-Hydroxy-2-phenyl-2,3-dihydro-1H-indene-2-carboxamide], the pIC50 in assay [1] (setting [3]) and in assay [2] was less than 4.30 in each case.

With `Cc1c(F)cccc1[C@]1(C(=O)NO)Cc2cnn(-c3ccc(F)cc3Cl)c2C1` [Example 90, (S)-1-(2-Chloro-4-fluorophenyl)-5-(3-fluoro-2-methylphenyl)-N-hydroxy-1,4,5,6-tetrahydrocyclopenta[c]pyrazole-5-carboxamide], the pIC50 in assay [1] (setting [3]) was 7.82; in assay [2] it was less than 4.30.

Regarding `Cc1c(F)cccc1C1(C(=O)NO)CCc2nn(CC(F)(F)F)cc2C1` (stereo not drawn) [Example 35, 5-(3-Fluoro-2-methylphenyl)-N-hydroxy-1-(2,2,2-trifluoroethyl)-4,5,6,7-tetrahydro-1H-indazole-5-carboxamide and 5-(3-fluoro-2-methylphenyl)-N-hydroxy-2-(2,2,2-trifluoroethyl)-4,5,6,7-tetrahydro-2H-indazole-5-carboxamide], the pIC50 is 6.11 in assay [1] (Lys-TFA substrate) and less than 4.30 in assay [2].

Consider `Cc1c(F)cccc1[C@]1(C(=O)NO)CCc2c1cnn2-c1ccccc1` [Example 54, (R)-4-(3-Fluoro-2-methylphenyl)-N-hydroxy-1-phenyl-1,4,5,6-tetrahydrocyclopenta[c]pyrazole-4-carboxamide], for which the results for the pIC50 in assay [1] (setting [3]) and in assay [2] were 6.49 and less than 4.30, respectively.

In the case of `Cc1cc(F)ccc1-n1cc2c(n1)C[C@](C(=O)NO)(c1cccc(F)c1C)C2` [Example 23, (S)-5-(3-fluoro-2-methylphenyl)-2-(4-fluoro-2-methylphenyl)-N-hydroxy-2,4,5,6-tetrahydrocyclopenta[c]pyrazole-5-carboxamide], the pIC50 in assay [1] (setting [3]) is 6.87; in assay [2], less than 4.30.

With `Cc1c(F)cccc1C1(C(=O)NO)CCc2nn(-c3ccccc3F)cc2C1` (single isomer, unassigned) [Example 34, E2-(abs)-5-(3-fluoro-2-methylphenyl)-2-(2-fluorophenyl)-N-hydroxy-4,5,6,7-tetrahydro-2H-indazole-5-carboxamide], the pIC50 was 4.57 in assay [1] (Lys-TFA substrate) and less than 4.30 in assay [2].

On to `Cc1c(F)cccc1[C@]1(C(=O)NO)CCc2nc(C3CC3)sc21` [Example 72, (S)-2-Cyclopropyl-6-(3-fluoro-2-methylphenyl)-N-hydroxy-5,6-dihydro-4H-cyclopenta[d]thiazole-6-carboxamide], for which the negative logarithm of the IC50 (pIC50) was 6.10 in assay [1] (setting [3]) and less than 4.30 in assay [2].

Turning to `Cc1c(F)cccc1[C@]1(C(=O)NO)Cc2cnn(-c3ccc(Cl)cc3)c2C1` [Example 8, (S)-1-(4-Chlorophenyl)-5-(3-fluoro-2-methylphenyl)-N-hydroxy-1,4,5,6-tetrahydrocyclopenta[c]pyrazole-5-carboxamide], the figures for the pIC50 in assay [1] (setting [3]) and in assay [2] were 6.99 and less than 4.30, respectively.

On to `Cc1ccccc1-n1ncc2c1CCC(C(=O)NO)(c1cccc(F)c1C)C2` (single isomer, unassigned) [Example 37, E1-(abs)-5-(3-Fluoro-2-methylphenyl)-N-hydroxy-1-(o-tolyl)-4,5,6,7-tetrahydro-1H-indazole-5-carboxamide], for which the pIC50 is 7.07 in assay [1] (Lys-TFA substrate) and less than 4.30 in assay [2].

On to `Cc1ccccc1-n1ncc2c1CCC(C(=O)NO)(c1cccc(F)c1C)C2` (single isomer, unassigned) [Example 38, E2-(abs)-5-(3-fluoro-2-methylphenyl)-N-hydroxy-1-(o-tolyl)-4,5,6,7-tetrahydro-1H-indazole-5-carboxamide], for which the pIC50 in assay [1] (Lys-TFA substrate) was 4.95; in assay [2] it was less than 4.30.

As for `Cc1c(F)cccc1C1(C(=O)NO)CCc2nn(-c3ccccc3F)cc2C1` (single isomer, unassigned) [Example 33, E1-(abs)-5-(3-Fluoro-2-methylphenyl)-2-(2-fluorophenyl)-N-hydroxy-4,5,6,7-tetrahydro-2H-indazole-5-carboxamide], the pIC50 in assay [1] (Lys-TFA substrate) was 6.39; in assay [2] it was less than 4.30.
